The values below come from PMC11089204 (Frontiers in Pharmacology, 2024).

Values joined by “and” are separate entries in the source; they are usually repeats but may differ in a detail not shown here. Identical values can stand only once. Like-named read-outs stand apart in the source and are kept apart here.

Data set [1] concerns human liver microsomes (HLM). The data set is described as follows: Psilocin incubation with human liver microsomes (CYP inhibition assay). The data set is classed as in vitro ADME. To be noted: for metabolite concentration formed from psilocin / psilocin concentration (mean ± SD): 1,000 nM psilocin with HLM; for metabolite concentration formed from psilocin: 240 min incubation; for psilocin concentration: absence of HLM. As to the method:
(§1) Corning UltraPool human liver microsomes (HLM) 150 (20 mg/mL), human intestinal microsomes (HIM) pool (10 mg/mL) as well as recombinant human CYP enzymes (with P450 oxidoreductase, OR) including CYP1A2+OR (0.5 nmol), CYP2B6+OR (0.5 nmol), CYP2C8+OR (1.0 nmol), CYP2C9*1+OR (1 nmol), CYP2C19+OR (0.5 nmol), CYP2D6*1+OR (0.5 nmol), CYP2E1+OR + cytochrome b5 (1 nmol), CYP3A4+OR + cytochrome b5 (0.5 nmol), MAO-A (5 mg/mL), MAO-B (5 mg/mL), and UGT1A10 (5 mg/mL) were purchased from Corning Life Sciences B.V (Amsterdam, Netherlands). All microsomes and recombinant enzyme solutions were aliquoted and stored at −80 °C until further use.
(§2) The total volume of the reaction mixture was 500 μL. […] Samples were either directly analyzed by liquid chromatography tandem mass spectrometry (LC-MS/MS) or briefly stored at −20°C until analysis.

For data set [2], the target named is T1, recombinant CYP2D6 (Homo sapiens, UniProt P10635).
T1 construct: purchased Corning Life Sciences B.V
T1 sequence (P10635 whole entry): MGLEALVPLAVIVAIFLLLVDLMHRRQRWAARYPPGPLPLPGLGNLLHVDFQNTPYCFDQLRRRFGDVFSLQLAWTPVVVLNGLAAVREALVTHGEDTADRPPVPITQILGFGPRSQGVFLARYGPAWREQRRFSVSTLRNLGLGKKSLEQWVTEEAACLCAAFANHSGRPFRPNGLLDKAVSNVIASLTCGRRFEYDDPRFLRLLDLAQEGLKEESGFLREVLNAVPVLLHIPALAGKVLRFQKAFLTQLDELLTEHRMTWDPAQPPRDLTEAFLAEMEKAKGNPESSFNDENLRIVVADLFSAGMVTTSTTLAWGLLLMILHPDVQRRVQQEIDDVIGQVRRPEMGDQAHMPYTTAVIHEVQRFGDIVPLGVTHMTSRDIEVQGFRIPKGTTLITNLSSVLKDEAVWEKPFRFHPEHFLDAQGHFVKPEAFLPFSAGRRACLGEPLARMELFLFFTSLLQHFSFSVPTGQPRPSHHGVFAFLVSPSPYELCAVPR
The data set can be described thus: Incubation with recombinant CYP2D6 enzymes. The data set is classed as in vitro ADME. As for the experimental part: as §1, §2

Data set [3] concerns the target T2, recombinant CYP3A4 (Homo sapiens, UniProt P08684).
T2 construct: purchased Corning Life Sciences B.V
The data set is described as follows: Incubation with recombinant CYP3A4 enzymes. The data set is classed as in vitro ADME. To be noted: for formation of metabolite from psilocin: rec. CYP3A4. As for the experimental part:
as §1, §2

Data set [4] addresses T3, recombinant MAO-B (Homo sapiens, UniProt P27338).
T3 construct: purchased Corning Life Sciences B.V
T3 sequence (P27338 1-520): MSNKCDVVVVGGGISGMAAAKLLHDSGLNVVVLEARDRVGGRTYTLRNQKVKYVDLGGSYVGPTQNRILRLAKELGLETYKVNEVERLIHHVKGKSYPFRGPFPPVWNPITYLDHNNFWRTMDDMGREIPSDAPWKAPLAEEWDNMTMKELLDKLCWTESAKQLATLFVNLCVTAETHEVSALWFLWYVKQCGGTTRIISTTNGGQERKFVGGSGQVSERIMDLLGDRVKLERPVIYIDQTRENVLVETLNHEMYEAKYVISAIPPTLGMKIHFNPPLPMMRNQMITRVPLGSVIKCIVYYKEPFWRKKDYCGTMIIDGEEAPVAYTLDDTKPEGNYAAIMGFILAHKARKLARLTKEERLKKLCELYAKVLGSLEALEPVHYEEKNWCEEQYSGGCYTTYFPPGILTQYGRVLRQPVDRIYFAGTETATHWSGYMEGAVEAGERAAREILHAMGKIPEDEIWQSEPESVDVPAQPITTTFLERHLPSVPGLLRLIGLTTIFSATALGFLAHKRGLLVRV
The data set is described as follows: Incubation with recombinant MAO-B enzymes. The data set is classed as in vitro ADME. To be noted: 1,000 nM psilocin, rec. MAO-B. As to the method:
as §1
The MAO inhibition assay was based on the assay described in section 2.5.1 and performed identically if not otherwise stated.

Data set [5] deals with T4, human 5-HT1A receptor (Homo sapiens, UniProt P08908).
T4 sequence (P08908 1-422): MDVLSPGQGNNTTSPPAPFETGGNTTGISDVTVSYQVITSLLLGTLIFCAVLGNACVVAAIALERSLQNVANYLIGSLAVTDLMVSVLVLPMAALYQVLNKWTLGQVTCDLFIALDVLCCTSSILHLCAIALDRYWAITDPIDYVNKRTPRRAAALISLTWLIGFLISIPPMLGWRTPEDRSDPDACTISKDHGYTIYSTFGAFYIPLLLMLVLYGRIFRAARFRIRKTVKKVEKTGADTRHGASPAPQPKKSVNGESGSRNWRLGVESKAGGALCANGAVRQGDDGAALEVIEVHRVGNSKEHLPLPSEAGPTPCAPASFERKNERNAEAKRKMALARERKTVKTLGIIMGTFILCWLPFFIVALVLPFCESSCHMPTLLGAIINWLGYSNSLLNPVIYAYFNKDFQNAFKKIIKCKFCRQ
The data set can be described thus: 5-HT activation potency (IP1 accumulation), 5-HT1A. Details: expressed in transfected cells. The data set is classed as cell-based. As for the experimental part: . […] NIH/3T3 cells stably expressing the human 5-HT1A, 5-HT2A, and 5-HT2B receptors were seeded at a density of 3,000 cells (5-HT1A and 5-HT2A) or 4,000 cells (5-HT2B) in 384-well plates using Opti-MEM medium from Gibco (ThermoFisher, Life Technologies, Zug, Switzerland). Subsequently, the test compounds were introduced, and the plates were incubated for 90 min at 37°C, followed by a 60 min incubation with Anti-IP1-Cryptate and IP1-d2 at room temperature. The formation of stimulated IP1 was quantified by homogeneous time-resolved fluorescence (HTRF) measurements using a BioTek Synergy H1 microplate reader (Agilent Technologies, Basel, Switzerland). The obtained raw data for receptor activation were subjected to normalization, wherein the baseline signal was set at 0%, and the maximum signal stimulated by 5-HT at the specific receptor was established as 100%.

The target of data set [6] is T4, human 5-HT1A receptor. The data set is described as follows: Radioligand receptor binding, 5-HT1A. The conditions noted are these: HEK 293 membranes, [3H]8-OH-DPAT. Details: expressed in transfected cells; host or cells: HEK 293 membrane preparations.
A short description of data set [7]: Metabolites in human plasma after oral psilocybin (reanalysed study samples). The conditions noted are these: for Tmax: human, plasma, po, 30 mg.
Setting [8] is: NIH/3T3 cells, IP1 accumulation, read-out: h5-HT1A Activation potency EC50 ± SD.
[9] abbreviates: read-out: h5-HT1A Receptor binding Ki ± SD.

T2 sequence (P08684 2-503 limits assumed): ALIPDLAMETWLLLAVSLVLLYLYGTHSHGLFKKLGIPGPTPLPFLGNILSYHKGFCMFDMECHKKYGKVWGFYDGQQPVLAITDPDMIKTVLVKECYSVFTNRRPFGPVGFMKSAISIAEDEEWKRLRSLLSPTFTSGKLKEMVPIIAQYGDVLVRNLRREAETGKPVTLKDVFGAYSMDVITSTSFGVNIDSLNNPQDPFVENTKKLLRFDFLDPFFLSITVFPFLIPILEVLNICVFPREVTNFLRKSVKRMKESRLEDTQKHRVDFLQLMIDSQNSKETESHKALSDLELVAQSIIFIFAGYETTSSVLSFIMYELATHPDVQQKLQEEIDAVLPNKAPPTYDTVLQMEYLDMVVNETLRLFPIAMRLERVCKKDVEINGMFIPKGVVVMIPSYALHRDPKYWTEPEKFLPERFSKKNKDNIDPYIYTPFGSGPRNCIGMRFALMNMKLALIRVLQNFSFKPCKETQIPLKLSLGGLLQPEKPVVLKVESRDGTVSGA

As to `O=C(O)Cc1c[nH]c2cccc(O)c12` [4-HIAA, 4-hydroxyindole-3-acetic acid], the “metabolite concentration formed from psilocin” value in data set [1] was found to be 43.0 ± 7.9 nM. The “formation of metabolite from psilocin” value is “neither observed” in data set [2] (rec. CYP2D6), “neither observed” in data set [3] and “did not produce any” in data set [4]. In addition, the EC50 in data set [5] (setting [8]) is above 10 µM. For the same compound, in data set [6] (setting [9]), the Ki was above 10 µM. Moreover, the Tmax in data set [7] was around 2.5 h.
In the case of `CN(C)CCc1c[nH]c2cccc(O)c12` [psilocin, 4-hydroxy-N,N-dimethyltryptamine], the “psilocin concentration (mean ± SD)” value is recorded as 829 ± 32 nM in data set [1] (after 240 min); 1,162 ± 146 nM in data set [1] (start of incubation); 937 ± 145 nM in data set [2] (1,000 nM psilocin, rec. CYP2D6, t = 0 min); 21.1 ± 14.2 nM in data set [2] (1,000 nM psilocin, rec. CYP2D6, t = 240 min); 1,081 ± 241 nM in data set [2] (rec. CYP2D6 with quinidine, t = 0 min); 747 ± 30 nM in data set [2] (rec. CYP2D6 with quinidine, t = 240 min). In data set [1] (1,000 nM psilocin, HLM with selective CYP inhibitors), the “effect of targeted inhibition of specific CYP enzymes in HLM on psilocin degradation” value was “did not lead to a clear inhibition”. Besides, the psilocin concentration is given as 1,141 ± 74 nM in data set [1] (t = 0 min); 1,096 ± 105 nM in data set [1] (t = 240 min); 916 ± 145 nM in data set [3] (rec. CYP3A4, t = 0 min); 546 ± 41 nM in data set [3] (rec. CYP3A4, t = 240 min); 973 ± 133 nM in data set [3] (rec. CYP3A4 with ketoconazole, t = 0 min); 720 ± 71 nM in data set [3] (rec. CYP3A4 with ketoconazole, t = 240 min). Further, the psilocin metabolized in data set [2] (rec. CYP2D6) was around 100%; in data set [3] (rec. CYP3A4 with ketoconazole, 240 min), 26%. In addition, in data set [3] (1,000 nM psilocin, rec. CYP3A4, 240 min), the “decrease of psilocin concentration / psilocin metabolized” value is on record as 40%. In data set [4], the “change of psilocin concentration” value is reported as “did not visibly decrease”. Besides, the EC50 in data set [5] came out at 0.0017 ± 0.0024 µM. The Ki in data set [6] (h5-HT1A Receptor binding Ki ± SD) was < 0.136 µM and 0.128 µM. For the same compound, in data set [7], the Tmax was around 2.5 h.
As for `OCCc1c[nH]c2cccc(O)c12` [4-HTP, 4-hydroxytryptophol], the “metabolite concentration formed from psilocin” value in data set [1] came out at 43.4 ± 6.0 nM. For the same compound, the “formation of metabolite from psilocin” value in data set [2] (rec. CYP2D6) was “neither observed”; in data set [3] it was “neither observed”; in data set [4] it was “did not produce any”. Further, the EC50 in data set [5] (setting [8]) is above 10 µM. Further, in data set [6] (setting [9]), the Ki was above 10 µM. Besides, the “detection in human plasma” value in data set [7] (30 mg psilocybin p.o., n = 5) was “neither norpsilocin nor 4-HTP was detected”.

As a reminder, the EC50 is the concentration at which the effect is half-maximal. By Ki is commonly meant a measure of affinity in units of concentration, obtained from inhibition or displacement. One may read the Tmax as the time from dosing to the highest level.
